Experimental data reported in patent US20180340225A1 (SHANGHAI INSTITUTE FOR ENDOCRINE AND METABOLIC DISEASES, priority 2015, published 2018).

System: patients with Type 2 diabetes
Test: Clinical efficacy indexes before and after 3 months of Acarbose treatment in naïve patients with Type 2 diabetes, by enterotype
Assay type: in vivo, human
Conditions: Prevotella enterotype, After treatment
Protocol: For naïve patients with Type 2 diabetes, their liver and kidney functions, blood glucose and lipid levels, intestinal hormones, inflammatory factors, and cardiovascular risk-related factors are evaluated before medication. Their stool, urine, and blood samples are retained. […] The patients' blood glucose levels are followed up every month within 3 months, and the medication is adjusted according to the blood glucose level. Three months later, the pre-medication assessment is repeated, and the urine, stool and blood samples are retained.
a) A randomized, opened, positive control method is adopted to collect the naïve patients with Type 2 diabetes and normal controls of their spouses. […] The newly diagnosed patients of Type 2 diabetes without medication receive routine examinations, including the retention of stool and blood samples.
i. Draw venous blood 15 ml under fasting condition, of which, 1.5 ml is used for detection of plasma glucose, 6.5 ml is added to ordinary tubes (including aprotinin, DPPV inhibitor), and 6.5 ml is added to anticoagulant tubes (including heparin and RNA later)
ii. Centrifuge the blood in ordinary tube at 4° C., when serum is separated out, draw about 3 ml, and divide to three 1.5 ml Eppendorf on average, then tighten the tube caps;
iii. Centrifuge the anticoagulation blood immediately at 4° C., to separate out about 3 ml of plasma, then divide to three 1.5 ml imported RNAase free Eppendorf tubes on average, […]

## C[C@H]1O[C@H](O[C@H]2[C@H](O)[C@@H](O)[C@@H](O[C@H]3[C@H](O)[C@@H](O)C(O)O[C@@H]3CO)O[C@@H]2CO)[C@H](O)[C@@H](O)[C@@H]1N[C@H]1C=C(CO)[C@@H](O)[C@H](O)[C@H]1O (stereo partly shown) [Acarbose]
  AKP Mean: 77.5
  ALB Mean: 44.39
  ALT Mean: 44.36
  APOA Mean: 1.267
  APOB Mean: 0.9273
  AST Mean: 29.36
  Adipisin Mean: 3221619.467
  Adpn Mean: 10063264.07
  BMI Mean: 25.11
  BW Mean: 72.63
  CP0 Mean: 2.485
  CP30 Mean: 2.802
  CP60 Mean: 3.609
  CP120 Mean: 5.305
  CP180 Mean: 4.735
  DBIL Mean: 6.293
  DBP Mean: 74.93
  ENDOM Mean: 14.27
  Endothelin Mean: 4.776
  FABP3 Mean: 2147
  FABP4 Mean: 10510.4
  FGF1M Mean: 24.33
  FGF2M Mean: 13.67
  FGF19M Mean: 19.3
  FGF23M Mean: 43.47
  G30 Mean: 7.601
  G60 Mean: 9.055
  G120 Mean: 9.171
  G180 Mean: 7.853
  GIP0 Mean: 57.4
  GIP30 Mean: 208.4
  GIP60 Mean: 217.2
  GIP120 Mean: 227.8
  GIP180 Mean: 194.8
  GMCSFM Mean: 67.97
  GO Mean: 6.712
  HB Mean: 147.8
  HBA1C Mean: 6.313
  HDL Mean: 2.869
  HGF Mean: 400.9
  HIP Mean: 97.21
  HOMA.IR Mean: 3.327
  IFNr1 Mean: 38.8
  IL1B Mean: 0.9107
  IL1bM Mean: 22.23
  IL2M Mean: 58.77
  IL4M Mean: 31.074
  IL5M Mean: 43.97
  IL6M Mean: 40.53
  IL6 Mean: 2.665
  IL8 Mean: 15.44
  IL9M Mean: 84.9
  IL10 Mean: 1.798
  IL12 Mean: 9.944
  IL13 Mean: 279.4
  IL15M Mean: 291.8
  IL17AM Mean: 32.03
  IL17EM Mean: 21.23
  IL17FM Mean: 232.6
  IL21 Mean: 34.47
  IL22M Mean: 30.5
  IL23M Mean: 41.7
  IL27 Mean: 73.1
  IL28a Mean: 18.37
  IL31M Mean: 112.3
  IL33M Mean: 43.5
  INS0 Mean: 11.734
  INS30 Mean: 14.21
  INS60 Mean: 23.404
  INS120 Mean: 27.84
  INS180 Mean: 20.88
  K Mean: 4.054
  LBP Mean: 17.616
  LDL Mean: 1.169
  LEPTIN Mean: 4522
  LPA Mean: 214.8
  Lymph Mean: 28.21
  MCP1 Mean: 252.8
  MIP3A Mean: 29.94
  NEU Mean: 63.59
  NGAL Mean: 174248.3333
  NGF Mean: 2.434
  Na Mean: 142.2
  PAI1 Mean: 61006.73333
  PDGFAA Mean: 4507
  PDGFAABB Mean: 24006.8
  PP0 Mean: 69.67
  PP30 Mean: 376.7
  PP60 Mean: 318.92
  PP120 Mean: 260.1
  PP180 Mean: 204.7
  RANTES Mean: 47562.53333
  RBC Mean: 4.945
  RCv Mean: 0.4421
  SBP Mean: 119.8
  TBIL Mean: 14.9
  TC Mean: 4.883
  TG Mean: 1.694
  TNFBM Mean: 44.7
  TNFa Mean: 4.572
  TPRO Mean: 73.55
  Trophonin M Mean: 17.9
  WAIST Mean: 88.93
  WBC Mean: 6.146
  WHR Mean: 0.9136
  bun Mean: 326.5
  creatine Mean: 67.42
  crp Mean: 19.638
  egf Mean: 267.604
  fetuinA Mean: 417.3
  fgf1 Mean: 13.79
  fgf2 Mean: 43.98
  fgf21M Mean: 97.93
  fgf21 Mean: 0.296
  monocyte Mean: 5.829
  mpo Mean: 467.3
  oscatinM Mean: 101.1
  pCP0 Mean: 1066
  pCP30 Mean: 1362
  pCP60 Mean: 1935.42
  pCP120 Mean: 2723.04
  pCP180 Mean: 2526
  pGLP10 Mean: 3.644
  pGLP130 Mean: 11.41
  pGLP160 Mean: 13.72
  pGLP1120 Mean: 9.07
  pGLP1180 Mean: 6.458
  pHOMA.IR Mean: 2.717
  pgh0 Mean: 53.4025
  pgh30 Mean: 64.28
  pgh60 Mean: 56.35
  pgh120 Mean: 42.5275
  pgh0180 Mean: 50.87
  pgluc0 Mean: 39.2
  pgluc30 Mean: 41.17
  pgluc60 Mean: 36.68
  pgluc120 Mean: 29.63
  pgluc180 Mean: 30.43
  pins0 Mean: 416.3
  pins30 Mean: 639.9
  pins60 Mean: 969
  pins120 Mean: 1373
  pins180 Mean: 1153
  platelet Mean: 206.3
  ppyy0 Mean: 43.57
  ppyy30 Mean: 64.34
  ppyy60 Mean: 56.78
  ppyy120 Mean: 54.02
  ppyy180 Mean: 51.59
  rGT Mean: 43.12
  resistin Mean: 25013.66667
  sicam1 Mean: 123
  svcam1 Mean: 545.498
  urea Mean: 4.954
  vegfa Mean: 340.2
  vegfc Mean: 128.7
  vegfd Mean: 195.1
